# Results published in ChEMBL document CHEMBL4414548 (J Med Chem, 2019).
# Key:
# [1] = Cmax in Balb/c mouse assessed as 6-((5-Fluoropyridin-2-yl)amino)-4-((2-(methylsulfonyl)phenyl)amino)nicotinamide level at 10 mg/kg, po after 5 hrs; format: ADME, organism-based; design: dose 10 mg/kg, route oral; details: in vivo
# [2] = Clearance in Balb/c mouse at 3 mg/kg, iv; format: ADME, organism-based; details: in vivo
# [3] = Drug concentration in Balb/c mouse at 3 mg/kg, iv after 5 hrs; format: ADME, organism-based; details: in vivo, read-out: Drug uptake
# [4] = Cmax in Balb/c mouse assessed as 6-((5-Fluoropyridin-2-yl)amino)-4-((2-(methylsulfonyl)phenyl)amino)nicotinamide level at 10 mg/kg, po after 0.5 hrs; format: ADME, organism-based; design: dose 10 mg/kg, route oral; details: in vivo
# [5] = Metabolic stability in rat liver microsomes assessed as parent compound remaining after 10 mins; format: ADME, Microsome; details: read-out: Stability
# [6] = Cmax in Balb/c mouse assessed as 6-((5-Fluoropyridin-2-yl)amino)-4-((2-(methylsulfonyl)phenyl)amino)nicotinamide level at 10 mg/kg, po after 1 hr; format: ADME, organism-based; design: dose 10 mg/kg, route oral; details: in vivo
# [7] = AUClast in Balb/c mouse at 3 mg/kg, iv; format: ADME, organism-based; design: dose 3 mg/kg, route intravenous, time 0 - last; details: in vivo
# [8] = Drug concentration in Balb/c mouse at 10 mg/kg, po after 0.5 hrs; format: ADME, organism-based; details: in vivo, read-out: Drug uptake
# [9] = target: Tyrosine-protein kinase JAK1 (Homo sapiens, UniProt P23458); test: Inhibition of JAK1 JH1 domain (unknown origin)
# Chain of Tyrosine-protein kinase JAK1 (P23458 whole entry, the tested form may be a part): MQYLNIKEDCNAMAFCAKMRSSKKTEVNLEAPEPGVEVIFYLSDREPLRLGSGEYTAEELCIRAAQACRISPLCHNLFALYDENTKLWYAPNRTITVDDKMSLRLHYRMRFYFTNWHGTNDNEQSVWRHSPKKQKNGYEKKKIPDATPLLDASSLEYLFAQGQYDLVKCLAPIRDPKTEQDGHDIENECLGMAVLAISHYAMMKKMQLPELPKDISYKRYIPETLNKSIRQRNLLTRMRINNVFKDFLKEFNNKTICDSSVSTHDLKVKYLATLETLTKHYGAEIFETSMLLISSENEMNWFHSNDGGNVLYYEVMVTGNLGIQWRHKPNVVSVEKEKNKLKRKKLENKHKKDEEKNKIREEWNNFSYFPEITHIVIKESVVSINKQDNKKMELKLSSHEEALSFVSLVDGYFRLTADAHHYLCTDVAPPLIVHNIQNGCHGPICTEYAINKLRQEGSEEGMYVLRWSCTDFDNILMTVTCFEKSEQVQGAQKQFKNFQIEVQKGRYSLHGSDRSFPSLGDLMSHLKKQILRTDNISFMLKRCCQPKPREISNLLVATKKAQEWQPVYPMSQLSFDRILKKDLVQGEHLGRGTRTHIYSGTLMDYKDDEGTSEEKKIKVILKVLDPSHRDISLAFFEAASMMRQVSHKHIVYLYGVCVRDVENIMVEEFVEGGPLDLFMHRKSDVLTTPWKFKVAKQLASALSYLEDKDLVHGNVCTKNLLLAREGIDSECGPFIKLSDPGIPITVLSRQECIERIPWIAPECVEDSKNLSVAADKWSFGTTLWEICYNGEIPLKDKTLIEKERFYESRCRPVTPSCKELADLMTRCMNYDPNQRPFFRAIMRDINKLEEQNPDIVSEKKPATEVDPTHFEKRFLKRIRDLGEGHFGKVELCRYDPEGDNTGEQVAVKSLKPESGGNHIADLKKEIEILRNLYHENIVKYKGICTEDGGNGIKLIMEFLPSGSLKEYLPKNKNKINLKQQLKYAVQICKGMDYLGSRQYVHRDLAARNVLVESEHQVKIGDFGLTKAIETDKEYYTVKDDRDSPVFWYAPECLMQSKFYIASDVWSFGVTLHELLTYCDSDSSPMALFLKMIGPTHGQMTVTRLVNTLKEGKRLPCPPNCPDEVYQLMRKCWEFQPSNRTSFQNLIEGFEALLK
# [10] = Cmax in Balb/c mouse assessed as 6-((5-Fluoropyridin-2-yl)amino)-4-((2-(methylsulfonyl)phenyl)amino)nicotinamide level at 3 mg/kg, iv after 0.05 hrs; format: ADME, organism-based; design: dose 3 mg/kg, route intravenous; details: in vivo
# [11] = Half life in dog liver microsomes; format: ADME, Canis lupus familiaris, Microsome
# JAK2/TYK2 = JAK2/TYK2 (Homo sapiens, UniProt O60674+P29597); test: Inhibition of TYK2/JAK2 in IL23-stimulated human Kit225 cells by steady-glo luciferase assay
# Chain of JAK2/TYK2 (O60674 whole entry): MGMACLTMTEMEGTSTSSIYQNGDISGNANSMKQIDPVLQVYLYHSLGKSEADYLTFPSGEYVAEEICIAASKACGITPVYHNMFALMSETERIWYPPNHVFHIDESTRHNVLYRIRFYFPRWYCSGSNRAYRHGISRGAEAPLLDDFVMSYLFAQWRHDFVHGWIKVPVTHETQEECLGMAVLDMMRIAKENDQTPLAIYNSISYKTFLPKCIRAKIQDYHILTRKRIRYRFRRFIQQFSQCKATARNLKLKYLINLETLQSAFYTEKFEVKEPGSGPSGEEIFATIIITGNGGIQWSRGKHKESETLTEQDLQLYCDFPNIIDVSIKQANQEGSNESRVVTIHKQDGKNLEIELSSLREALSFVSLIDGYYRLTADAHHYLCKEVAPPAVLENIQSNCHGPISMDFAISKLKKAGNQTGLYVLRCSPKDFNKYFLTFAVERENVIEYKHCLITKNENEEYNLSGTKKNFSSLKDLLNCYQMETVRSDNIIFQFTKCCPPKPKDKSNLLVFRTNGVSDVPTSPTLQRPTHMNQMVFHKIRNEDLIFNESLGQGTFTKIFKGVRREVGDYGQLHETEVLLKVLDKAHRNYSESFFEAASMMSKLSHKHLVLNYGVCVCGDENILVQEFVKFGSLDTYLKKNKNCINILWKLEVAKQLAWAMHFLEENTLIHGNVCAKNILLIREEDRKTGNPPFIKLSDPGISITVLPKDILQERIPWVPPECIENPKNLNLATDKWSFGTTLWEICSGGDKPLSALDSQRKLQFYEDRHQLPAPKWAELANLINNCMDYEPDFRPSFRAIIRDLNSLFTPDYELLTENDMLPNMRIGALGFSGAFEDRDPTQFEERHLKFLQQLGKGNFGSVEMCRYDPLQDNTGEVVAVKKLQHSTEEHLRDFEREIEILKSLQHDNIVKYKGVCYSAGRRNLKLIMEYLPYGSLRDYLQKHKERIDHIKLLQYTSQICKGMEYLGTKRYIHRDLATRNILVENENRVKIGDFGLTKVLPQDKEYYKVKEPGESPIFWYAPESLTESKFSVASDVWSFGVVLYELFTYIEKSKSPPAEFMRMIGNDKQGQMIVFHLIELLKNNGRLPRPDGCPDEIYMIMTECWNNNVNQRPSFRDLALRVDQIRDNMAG
# Chain of JAK2/TYK2 (P29597 whole entry): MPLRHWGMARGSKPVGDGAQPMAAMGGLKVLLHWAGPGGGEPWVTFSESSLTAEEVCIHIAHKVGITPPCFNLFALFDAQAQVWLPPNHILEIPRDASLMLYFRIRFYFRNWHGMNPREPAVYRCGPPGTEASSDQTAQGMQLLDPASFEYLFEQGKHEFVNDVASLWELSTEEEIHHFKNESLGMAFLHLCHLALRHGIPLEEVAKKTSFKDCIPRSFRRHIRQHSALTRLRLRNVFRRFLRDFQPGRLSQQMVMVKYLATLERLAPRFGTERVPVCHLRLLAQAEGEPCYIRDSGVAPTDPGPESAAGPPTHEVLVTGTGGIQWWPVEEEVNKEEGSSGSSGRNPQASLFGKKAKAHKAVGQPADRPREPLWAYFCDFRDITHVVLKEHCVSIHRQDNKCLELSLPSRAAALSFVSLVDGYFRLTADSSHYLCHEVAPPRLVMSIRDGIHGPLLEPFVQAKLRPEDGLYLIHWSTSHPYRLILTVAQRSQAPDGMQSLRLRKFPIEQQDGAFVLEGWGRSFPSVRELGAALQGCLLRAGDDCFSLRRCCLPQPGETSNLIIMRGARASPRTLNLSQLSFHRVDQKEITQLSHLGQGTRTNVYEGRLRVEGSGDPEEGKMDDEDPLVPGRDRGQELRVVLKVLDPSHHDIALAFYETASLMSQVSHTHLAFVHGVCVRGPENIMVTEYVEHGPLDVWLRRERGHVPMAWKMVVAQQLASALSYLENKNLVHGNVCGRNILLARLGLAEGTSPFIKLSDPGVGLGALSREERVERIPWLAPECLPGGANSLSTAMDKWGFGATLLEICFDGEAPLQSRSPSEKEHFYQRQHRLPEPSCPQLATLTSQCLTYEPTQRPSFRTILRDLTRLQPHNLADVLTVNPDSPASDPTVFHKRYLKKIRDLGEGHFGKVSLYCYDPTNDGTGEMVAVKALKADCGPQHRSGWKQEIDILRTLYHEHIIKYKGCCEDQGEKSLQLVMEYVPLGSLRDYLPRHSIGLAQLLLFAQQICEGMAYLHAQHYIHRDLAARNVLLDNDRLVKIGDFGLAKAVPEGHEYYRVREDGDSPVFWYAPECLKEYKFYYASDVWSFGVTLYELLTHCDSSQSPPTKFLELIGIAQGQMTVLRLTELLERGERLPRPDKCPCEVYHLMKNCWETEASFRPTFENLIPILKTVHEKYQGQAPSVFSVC
# [12] = Drug concentration in Balb/c mouse at 3 mg/kg, iv after 3 hrs; format: ADME, organism-based; details: in vivo, read-out: Drug uptake
# [13] = Half life in cynomolgus monkey liver microsomes; format: ADME, Macaca fascicularis, Microsome
# [14] = Metabolic stability in human liver microsomes assessed as parent compound remaining after 10 mins; format: ADME, Microsome; details: read-out: Stability
# [15] = Drug concentration in Balb/c mouse at 3 mg/kg, iv after 0.5 hrs; format: ADME, organism-based; details: in vivo, read-out: Drug uptake
# [16] = target: T1, Non-receptor tyrosine-protein kinase TYK2 (Homo sapiens, UniProt P29597); test: Inhibition of fluorescein-labeled kinase tracer binding to His-TVMV-fused TYK2 JH2 domain (575 to 869 residues) (unknown origin) measured after 90 mins by HTRF assay
# T1 sequence (P29597 whole entry, the tested form may be a part): as the sequence (P29597 whole entry) above
# [17] = Drug concentration in Balb/c mouse at 3 mg/kg, iv after 7 hrs; format: ADME, organism-based; details: in vivo, read-out: Drug uptake
# [18] = Drug concentration in Balb/c mouse at 10 mg/kg, po after 1 hr; format: ADME, organism-based; details: in vivo, read-out: Drug uptake
# [19] = target: T1, Non-receptor tyrosine-protein kinase TYK2; test: Inhibition of TYK2 JH1 domain (unknown origin)
# [20] = Drug concentration in Balb/c mouse at 3 mg/kg, iv after 0.05 hrs; format: ADME, organism-based; details: in vivo, read-out: Drug uptake
# [21] = Cmax in anesthetized rabbit at 1 to 10 mg/kg, iv; format: ADME, organism-based, Oryctolagus cuniculus; details: in vivo
# [22] = Unbound drug level in rabbit at 1 to 10 mg/kg, iv; format: ADME, organism-based, Oryctolagus cuniculus; details: in vivo
# [23] = Cmax in mouse at 10 mg/kg, po after 7 hrs; format: ADME, organism-based; design: dose 10 mg/kg, route oral; details: in vivo
# [24] = Drug concentration in Balb/c mouse at 10 mg/kg, po after 7 hrs; format: ADME, organism-based; details: in vivo, read-out: Drug uptake
# [25] = target: Tyrosine-protein kinase JAK2 (Homo sapiens, UniProt O60674); test: Inhibition of JAK2 JH1 domain (unknown origin)
# Chain of Tyrosine-protein kinase JAK2 (O60674 whole entry, the tested form may be a part): as the sequence (O60674 whole entry) above
# [26] = Cmax in Balb/c mouse assessed as 6-((5-Fluoropyridin-2-yl)amino)-4-((2-(methylsulfonyl)phenyl)amino)nicotinamide level at 3 mg/kg, iv after 3 hrs; format: ADME, organism-based; design: dose 3 mg/kg, route intravenous; details: in vivo
# [27] = Cmax in Balb/c mouse assessed as 6-((5-Fluoropyridin-2-yl)amino)-4-((2-(methylsulfonyl)phenyl)amino)nicotinamide level at 3 mg/kg, iv after 7 hrs; format: ADME, organism-based; design: dose 3 mg/kg, route intravenous; details: in vivo
# [28] = target: T1, Non-receptor tyrosine-protein kinase TYK2; test: Inhibition of TYK2 JH2 domain in human whole blood assessed as inhibition of IFNalpha-induced STAT5 phosphorylation preincubated for 1 hr followed by IFNalpha stimulation and measured after 15 mins by fluorescence assay; format: tissue-based
# [29] = Cmax in Balb/c mouse assessed as 6-((5-Fluoropyridin-2-yl)amino)-4-((2-(methylsulfonyl)phenyl)amino)nicotinamide level at 10 mg/kg, po after 3 hrs; format: ADME, organism-based; design: dose 10 mg/kg, route oral; details: in vivo
# [30] = AUClast in Balb/c mouse at 10 mg/kg, po; format: ADME, organism-based; design: dose 10 mg/kg, time 0 - last, route oral; details: in vivo
# [31] = target: Non-receptor tyrosine-protein kinase TYK2 (Mus musculus, UniProt Q9R117); test: Inhibition of TYK2 JH2 domain in mouse whole blood assessed as inhibition of IFNalpha-induced STAT1 phosphorylation preincubated for 1 hr followed by IFNalpha stimulation and measured after 15 mins by fluorescence assay; format: tissue-based
# [32] = Metabolic stability in mouse liver microsomes assessed as parent compound remaining after 10 mins; format: ADME, Microsome; details: read-out: Stability
# [33] = Cmax in Balb/c mouse assessed as 6-((5-Fluoropyridin-2-yl)amino)-4-((2-(methylsulfonyl)phenyl)amino)nicotinamide level at 10 mg/kg, po after 7 hrs; format: ADME, organism-based; design: dose 10 mg/kg, route oral; details: in vivo
# [34] = Cmax in Balb/c mouse assessed as 6-((5-Fluoropyridin-2-yl)amino)-4-((2-(methylsulfonyl)phenyl)amino)nicotinamide level at 3 mg/kg, iv after 0.5 hrs; format: ADME, organism-based; design: dose 3 mg/kg, route intravenous; details: in vivo
# [35] = AUClast in mouse at 10 mg/kg, po after 7 hrs; format: ADME, organism-based; design: time < 7 hr, dose 10 mg/kg, route oral; details: in vivo
# [36] = Permeability across apical to basolateral side in human Caco2 cells; format: ADME, cell-based; details: Caco-2, read-out: permeability
# [37] = Drug concentration in Balb/c mouse at 10 mg/kg, po after 5 hrs; format: ADME, organism-based; details: in vivo, read-out: Drug uptake
# [38] = Half life in rat liver microsomes; format: ADME, Microsome
# [39] = Half life in Balb/c mouse at 3 mg/kg, iv; format: ADME, organism-based; details: in vivo
# [40] = Cmax in Balb/c mouse assessed as 6-((5-Fluoropyridin-2-yl)amino)-4-((2-(methylsulfonyl)phenyl)amino)nicotinamide level at 10 mg/kg, po after 0.05 hrs; format: ADME, organism-based; design: dose 10 mg/kg, route oral; details: in vivo
# JAK1/TYK2 = JAK1/TYK2 (Homo sapiens, UniProt P23458+P29597); test: Inhibition of TYK2/JAK1 in IFNalpha-stimulated human Kit225 cells by steady-glo luciferase assay
# Chain of JAK1/TYK2 (P23458 whole entry): as the sequence (P23458 whole entry, the tested form may be a part) above
# Chain of JAK1/TYK2 (P29597 whole entry): as the sequence (P29597 whole entry) above
# [41] = Cmax in Balb/c mouse assessed as 6-((5-Fluoropyridin-2-yl)amino)-4-((2-(methylsulfonyl)phenyl)amino)nicotinamide level at 3 mg/kg, iv after 5 hrs; format: ADME, organism-based; design: dose 3 mg/kg, route intravenous; details: in vivo
# [42] = Efflux ratio of permeability in human Caco2; format: ADME, cell-based; details: Caco-2
# [43] = Cmax in Balb/c mouse assessed as 6-((5-Fluoropyridin-2-yl)amino)-4-((2-(methylsulfonyl)phenyl)amino)nicotinamide level at 3 mg/kg, iv after 1 hr; format: ADME, organism-based; design: dose 3 mg/kg, route intravenous; details: in vivo
# [44] = Volume of distribution at steady state in Balb/c mouse at 3 mg/kg, iv; format: ADME, organism-based; details: in vivo, read-out: Vdss
# [45] = Drug concentration in Balb/c mouse at 10 mg/kg, po after 0.05 hrs; format: ADME, organism-based; details: in vivo, read-out: Drug uptake
# [46] = Half life in human liver microsomes; format: ADME, Microsome
# [47] = Drug concentration in Balb/c mouse at 3 mg/kg, iv after 1 hr; format: ADME, organism-based; details: in vivo, read-out: Drug uptake
# [48] = Half life in mouse liver microsomes; format: ADME, Microsome
# JAK2/JAK1 = JAK2/JAK1 (Homo sapiens, UniProt O60674+P23458); test: Inhibition of JAK1/JAK2 (unknown origin) in GM-CSF stimulated cells by cell based assay
# Chain of JAK2/JAK1 (P23458 whole entry): as the sequence (P23458 whole entry, the tested form may be a part) above
# Chain of JAK2/JAK1 (O60674 whole entry): as the sequence (O60674 whole entry) above
# JAK3/JAK1 = JAK3/JAK1 (Homo sapiens, UniProt P23458+P52333); test: Inhibition of JAK1/JAK3 (unknown origin) in IL-2 stimulated cells by cell based assay
# Chain of JAK3/JAK1 (P52333 whole entry): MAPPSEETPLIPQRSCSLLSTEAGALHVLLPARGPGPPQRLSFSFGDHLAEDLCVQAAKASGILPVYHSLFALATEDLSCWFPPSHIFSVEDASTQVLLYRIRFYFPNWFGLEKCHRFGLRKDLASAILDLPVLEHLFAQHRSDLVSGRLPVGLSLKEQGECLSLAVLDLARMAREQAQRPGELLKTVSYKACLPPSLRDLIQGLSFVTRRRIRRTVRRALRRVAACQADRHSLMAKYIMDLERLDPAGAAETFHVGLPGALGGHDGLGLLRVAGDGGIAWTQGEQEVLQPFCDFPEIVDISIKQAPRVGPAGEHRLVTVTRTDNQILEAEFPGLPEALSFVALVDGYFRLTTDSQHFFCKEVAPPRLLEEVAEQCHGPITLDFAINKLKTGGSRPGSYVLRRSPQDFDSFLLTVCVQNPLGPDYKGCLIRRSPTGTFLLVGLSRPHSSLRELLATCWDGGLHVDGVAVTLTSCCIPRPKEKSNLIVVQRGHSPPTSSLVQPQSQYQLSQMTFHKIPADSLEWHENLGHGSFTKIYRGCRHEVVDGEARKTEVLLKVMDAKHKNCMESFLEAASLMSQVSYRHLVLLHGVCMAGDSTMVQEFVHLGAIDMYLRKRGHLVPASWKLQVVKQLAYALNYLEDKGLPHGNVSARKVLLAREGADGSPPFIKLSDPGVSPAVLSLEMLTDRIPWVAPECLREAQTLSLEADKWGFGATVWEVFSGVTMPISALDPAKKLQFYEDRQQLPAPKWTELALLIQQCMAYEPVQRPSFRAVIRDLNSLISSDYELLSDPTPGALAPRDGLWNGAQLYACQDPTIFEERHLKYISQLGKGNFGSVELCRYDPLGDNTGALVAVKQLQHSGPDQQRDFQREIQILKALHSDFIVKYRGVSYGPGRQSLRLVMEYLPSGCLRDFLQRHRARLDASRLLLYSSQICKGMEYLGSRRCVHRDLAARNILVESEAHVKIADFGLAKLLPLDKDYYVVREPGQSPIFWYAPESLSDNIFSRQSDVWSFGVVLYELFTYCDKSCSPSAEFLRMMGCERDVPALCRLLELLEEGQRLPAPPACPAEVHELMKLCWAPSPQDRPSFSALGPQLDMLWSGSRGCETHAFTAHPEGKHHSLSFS
# Chain of JAK3/JAK1 (P23458 whole entry): as the sequence (P23458 whole entry, the tested form may be a part) above
# [49] = Drug concentration in Balb/c mouse at 10 mg/kg, po after 3 hrs; format: ADME, organism-based; details: in vivo, read-out: Drug uptake
smiles,measurement,setting,value
[2H]C([2H])([2H])NC(=O)c1cnc(Nc2ccc(F)cn2)cc1Nc1ccccc1S(C)(=O)=O,Cmax,[1],4.9 nM
same,clearance,[2],25 mL/min/kg
same,concentration at 5 h,[3],270 nM
same,Cmax,[4],4.9 nM
same,remaining at 10 min,[5],91%
same,Cmax,[6],4.9 nM
same,AUC(0-t),[7],5 µM·h
same,concentration at 0.5 h,[8],1400 nM
same,IC50,[9],> 2000 nM
same,Cmax,[10],4.9 nM
same,half-life,[11],16 min
same,IC50,JAK2/TYK2,110 nM
same,concentration at 3 h,[12],470 nM
same,half-life,[13],6 min
same,remaining at 10 min,[14],85%
same,concentration at 0.5 h,[15],2400 nM
same,IC50,[16],0.49 nM
same,concentration at 7 h,[17],47 nM
same,concentration at 1 h,[18],1400 nM
same,IC50,[19],> 50000 nM
same,concentration at 0.05 h,[20],2800 nM
same,Cmax,[21],20200 nM
same,fraction unbound,[22],0.13
same,Cmax,[23],1440 nM
same,concentration at 7 h,[24],260 nM
same,IC50,[25],> 50000 nM
same,Cmax,[26],4.9 nM
same,Cmax,[27],4.9 nM
same,IC50,[28],160 nM
same,Cmax,[29],4.9 nM
same,AUC(0-t),[30],7.8 µM·h
same,IC50,[31],600 nM
same,remaining at 10 min,[32],81%
same,Cmax,[33],4.9 nM
same,Cmax,[34],4.9 nM
same,AUC(0-t) at 7 h,[35],7.83 µM·h
same,Papp A→B,[36],5.8 ×10⁻⁶ cm/s
same,concentration at 5 h,[37],1300 nM
same,half-life,[38],44 min
same,half-life,[39],72 min
same,Cmax,[40],4.9 nM
same,IC50,JAK1/TYK2,53 nM
same,Cmax,[41],4.9 nM
same,efflux ratio,[42],9.3
same,Cmax,[43],4.9 nM
same,Vd,[44],2.7 L/kg
same,concentration at 0.05 h,[45],750 nM
same,half-life,[46],69 min
same,concentration at 1 h,[47],1500 nM
same,half-life,[48],35 min
same,IC50,JAK2/JAK1,> 12500 nM
same,IC50,JAK3/JAK1,> 12500 nM
same,concentration at 3 h,[49],1300 nM
